Laboratory results: patent EP4603105A1, “PHARMACEUTICAL COMPOSITION CONTAINING CYCLIC COMPOUND HAVING SELECTIVE KRAS INHIBITORY EFFECT AGAINST HRAS AND NRAS” (CHUGAI SEIYAKU KABUSHIKI KAISHA, priority 2022, dated 2024)

Columns and labels:
[1] = target: GDP-bound NRAS wild-type protein (Homo sapiens, UniProt P01111); test: Binding to NRAS by surface plasmon resonance (SPR), KD and KD ratio to KRAS; details: ratio of KD value for GDP-bound NRAS wild-type protein to KD value for KRAS (SPR)
How it was run: (§1)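 Single-cycle kinetics on GDP-loaded biotin-Avi RAS captured to ~100–300 RU; 75 s ascending injections, 100 µL/min, 30°C. HBS pH 7.4 + 10 mM MgCl2/10 µM GDP/4% DMSO. 1:1 fit, KD.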

[2] = target: HRAS wild-type protein (Homo sapiens, UniProt P01112); test: Binding to HRAS by surface plasmon resonance (SPR), KD and KD ratio to KRAS; details: ratio of KD value for HRAS wild-type protein to KD value for KRAS (SPR)
How it was run: as §1

[3] = tested on: human lung cancer strain NCI-H441; assay type: cell-based
How it was run: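 Proliferation was scored by […] measured after the reagent was added to cultures kept at 37°C in 5% carbon dioxide.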

Sequence of GDP-bound NRAS wild-type protein (P01111 whole entry): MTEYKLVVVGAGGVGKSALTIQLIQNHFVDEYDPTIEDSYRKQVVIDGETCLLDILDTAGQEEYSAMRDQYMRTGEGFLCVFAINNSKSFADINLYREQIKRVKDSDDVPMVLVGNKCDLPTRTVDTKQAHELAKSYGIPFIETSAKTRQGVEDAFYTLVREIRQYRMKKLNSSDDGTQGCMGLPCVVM
Sequence of HRAS wild-type protein (P01112 whole entry): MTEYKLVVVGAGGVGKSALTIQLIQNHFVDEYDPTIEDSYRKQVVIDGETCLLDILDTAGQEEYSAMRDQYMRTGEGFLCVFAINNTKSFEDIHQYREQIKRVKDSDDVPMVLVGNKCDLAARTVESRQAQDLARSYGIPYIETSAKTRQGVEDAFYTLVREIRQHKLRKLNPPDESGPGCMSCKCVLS

SMILES | NRAS /KRAS [1] | HRAS /KRAS [2] | IC50 [3]
CCO[C@@H]1C[C@H]2C(=O)NC3(CC(F)(F)C3)C(=O)N(C)[C@@H](C(CC)CC)C(=O)N3CCC[C@@H]3CC(=O)N(C)[C@@H](CC)C(=O)N[C@@H]([C@@H](C)CC)C(=O)N(C)CC(=O)N(C)[C@H]3C/C=C\CCN(C3=O)[C@@H](Cc3ccc(C(F)(F)F)cc3)C(=O)N(C)CC(=O)N[C@@H](CCc3cc(F)c(C(F)(F)F)c(F)c3)C(=O)N2C1 [PP1608] | A (a compound having 10 or more and less than 20 is denoted as A) | A (a compound having 10 or more and less than 20 is denoted as A) | 70.1 nM
CCO[C@@H]1C[C@H]2C(=O)NC3(CC(F)(F)C3)C(=O)N(C)[C@@H](C3CCCC3)C(=O)N3CCC[C@@H]3CC(=O)N(C)[C@@H](CC)C(=O)N[C@@H]([C@@H](C)CC)C(=O)N(C)CC(=O)N(C)[C@H]3C/C=C\CCN(C3=O)[C@@H](Cc3ccc(C(F)(F)F)cc3)C(=O)N(C)CC(=O)N[C@@H](CCc3cc(F)c(C(F)(F)F)c(F)c3)C(=O)N2C1 [PP1609] | A (a compound having 10 or more and less than 20 is denoted as A) | A (a compound having 10 or more and less than 20 is denoted as A) | 37 nM
CCO[C@@H]1C[C@H]2C(=O)NC3(CC(C)(C)C3)C(=O)N(C)[C@@H](C(CC)CC)C(=O)N3CCC[C@@H]3CC(=O)N(C)[C@@H](CC3CC3)C(=O)N[C@@H]([C@@H](C)CC)C(=O)N(C)CC(=O)N(C)[C@H]3C/C=C\CCN(C3=O)[C@@H](Cc3ccc(C(F)(F)F)cc3)C(=O)N(C)CC(=O)N[C@@H](CCc3cc(F)c(C(F)(F)F)c(F)c3)C(=O)N2C1 [PP1610] | A (a compound having 10 or more and less than 20 is denoted as A) | A (a compound having 10 or more and less than 20 is denoted as A) | 86.8 nM
CCO[C@@H]1C[C@H]2C(=O)NC3(CC(C)(C)C3)C(=O)N(C)[C@@H](C3CCCC3)C(=O)N3CCC[C@@H]3CC(=O)N(C)[C@@H](CC3CC3)C(=O)N[C@@H]([C@@H](C)CC)C(=O)N(C)CC(=O)N(C)[C@H]3C/C=C\CCN(C3=O)[C@@H](Cc3ccc(C(F)(F)F)cc3)C(=O)N(C)CC(=O)N[C@@H](CCc3cc(F)c(C(F)(F)F)c(F)c3)C(=O)N2C1 [PP1611] | B (a compound having 3 or more and less than 10 is denoted as B) | B (a compound having 3 or more and less than 10 is denoted as B) | 28 nM
CCO[C@@H]1C[C@H]2C(=O)NC3(CCC3)C(=O)N(C)[C@@H](C(CC)CC)C(=O)N3CCC[C@@H]3CC(=O)N(C)[C@@H](CC3CC3)C(=O)N[C@@H]([C@@H](C)CC)C(=O)N(C)CC(=O)N(C)[C@H]3C/C=C\CCN(C3=O)[C@@H](Cc3ccc(C(F)(F)F)cc3)C(=O)N(C)CC(=O)N[C@@H](CCc3cc(F)c(C(F)(F)F)c(F)c3)C(=O)N2C1 [PP1612] | B (a compound having 3 or more and less than 10 is denoted as B) | B (a compound having 3 or more and less than 10 is denoted as B) | 61.9 nM
CCO[C@@H]1C[C@H]2C(=O)NC3(CCC3)C(=O)N(C)[C@@H](C3CCCC3)C(=O)N3CCC[C@@H]3CC(=O)N(C)[C@@H](CC3CC3)C(=O)N[C@@H]([C@@H](C)CC)C(=O)N(C)CC(=O)N(C)[C@H]3C/C=C\CCN(C3=O)[C@@H](Cc3ccc(C(F)(F)F)cc3)C(=O)N(C)CC(=O)N[C@@H](CCc3cc(F)c(C(F)(F)F)c(F)c3)C(=O)N2C1 [PP1613] | B (a compound having 3 or more and less than 10 is denoted as B) | B (a compound having 3 or more and less than 10 is denoted as B) | 14.7 nM
CCO[C@@H]1C[C@H]2C(=O)NC3(CC(F)(F)C3)C(=O)N(C)[C@@H](C(CC)CC)C(=O)N3CCC[C@@H]3CC(=O)N(C)[C@@H](CC3CC3)C(=O)N[C@@H]([C@@H](C)CC)C(=O)N(C)CC(=O)N(C)[C@H]3C/C=C\CCN(C3=O)[C@@H](Cc3ccc(C(F)(F)F)cc3)C(=O)N(C)CC(=O)N[C@@H](CCc3cc(F)c(C(F)(F)F)c(F)c3)C(=O)N2C1 [PP1614] | A (a compound having 10 or more and less than 20 is denoted as A) | A (a compound having 10 or more and less than 20 is denoted as A) | 54.2 nM
CCO[C@@H]1C[C@H]2C(=O)NC3(CC(F)(F)C3)C(=O)N(C)[C@@H](C3CCCC3)C(=O)N3CCC[C@@H]3CC(=O)N(C)[C@@H](CC3CC3)C(=O)N[C@@H]([C@@H](C)CC)C(=O)N(C)CC(=O)N(C)[C@H]3C/C=C\CCN(C3=O)[C@@H](Cc3ccc(C(F)(F)F)cc3)C(=O)N(C)CC(=O)N[C@@H](CCc3cc(F)c(C(F)(F)F)c(F)c3)C(=O)N2C1 [PP1615] | B (a compound having 3 or more and less than 10 is denoted as B) | B (a compound having 3 or more and less than 10 is denoted as B) | 20.9 nM
CCO[C@@H]1C[C@H]2C(=O)NC3(CCC3)C(=O)N(C)[C@@H](C3CCCC3)C(=O)N3CCC[C@@H]3CC(=O)N(C)[C@@H](CC3CC3)C(=O)N[C@@H]([C@@H](C)CC)C(=O)N(C)CC(=O)N(C)[C@H]3C/C=C\CCN(C3=O)[C@@H](Cc3ccc(C(F)(F)F)cc3)C(=O)N(C)CC(=O)N[C@@H](CCc3ccc(C(F)(F)F)c(OC)c3)C(=O)N2C1 [PP1616] | B (a compound having 3 or more and less than 10 is denoted as B) | B (a compound having 3 or more and less than 10 is denoted as B) | 33.5 nM
CCO[C@@H]1C[C@H]2C(=O)NC3(CC(C)(C)C3)C(=O)N(C)[C@@H](C3CCCC3)C(=O)N3CCC[C@@H]3CC(=O)N(C)[C@@H](CC)C(=O)N[C@@H]([C@@H](C)CC)C(=O)N(C)CC(=O)N(C)[C@H]3C/C=C\CCN(C3=O)[C@@H](CC3CCCCC3)C(=O)N(C)CC(=O)N[C@@H](CCc3cc(F)c(C(F)(F)F)c(F)c3)C(=O)N2C1 [PP1620] | B (a compound having 3 or more and less than 10 is denoted as B) | B (a compound having 3 or more and less than 10 is denoted as B) | 170 nM
CCO[C@@H]1C[C@H]2C(=O)NC3(CC(C)(C)C3)C(=O)N(C)[C@@H](C(CC)CC)C(=O)N(C)C(CC)CC(=O)N(C)[C@@H](CC)C(=O)N[C@@H]([C@@H](C)CC)C(=O)N(C)CC(=O)N(C)[C@H]3C/C=C\CCN(C3=O)[C@@H](Cc3ccc(C(F)(F)F)cc3)C(=O)N(C)CC(=O)N[C@@H](CCc3cc(F)c(C(F)(F)F)c(F)c3)C(=O)N2C1 (stereo partly drawn) [PP1622] | A (a compound having 10 or more and less than 20 is denoted as A) | A (a compound having 10 or more and less than 20 is denoted as A) | 28.1 nM
CCO[C@@H]1C[C@H]2C(=O)NC3(CC(C)(C)C3)C(=O)N(C)[C@@H](C3CCCC3)C(=O)N(C)[C@H](CC)CC(=O)N(C)[C@@H](CC)C(=O)N[C@@H]([C@@H](C)CC)C(=O)N(C)CC(=O)N(C)[C@H]3C/C=C\CCN(C3=O)[C@@H](Cc3ccc(C(F)(F)F)cc3)C(=O)N(C)CC(=O)N[C@@H](CCc3cc(F)c(C(F)(F)F)c(F)c3)C(=O)N2C1 [PP1623] | A (a compound having 10 or more and less than 20 is denoted as A) | A (a compound having 10 or more and less than 20 is denoted as A) | 4.5 nM
CCO[C@@H]1C[C@H]2C(=O)NC3(CCC3)C(=O)N(C)[C@@H](C(CC)CC)C(=O)N(C)[C@H](CC)CC(=O)N(C)[C@@H](CC)C(=O)N[C@@H]([C@@H](C)CC)C(=O)N(C)CC(=O)N(C)[C@H]3C/C=C\CCN(C3=O)[C@@H](Cc3ccc(C(F)(F)F)cc3)C(=O)N(C)CC(=O)N[C@@H](CCc3cc(F)c(C(F)(F)F)c(F)c3)C(=O)N2C1 [PP1624] | A (a compound having 10 or more and less than 20 is denoted as A) | A (a compound having 10 or more and less than 20 is denoted as A) | 55.8 nM
CCO[C@@H]1C[C@H]2C(=O)NC3(CCC3)C(=O)N(C)[C@@H](C3CCCC3)C(=O)N(C)[C@H](CC)CC(=O)N(C)[C@@H](CC)C(=O)N[C@@H]([C@@H](C)CC)C(=O)N(C)CC(=O)N(C)[C@H]3C/C=C\CCN(C3=O)[C@@H](Cc3ccc(C(F)(F)F)cc3)C(=O)N(C)CC(=O)N[C@@H](CCc3cc(F)c(C(F)(F)F)c(F)c3)C(=O)N2C1 [PP1625] | B (a compound having 3 or more and less than 10 is denoted as B) | B (a compound having 3 or more and less than 10 is denoted as B) | 20.2 nM
CCO[C@@H]1C[C@H]2C(=O)NC3(CC(F)(F)C3)C(=O)N(C)[C@@H](C(CC)CC)C(=O)N(C)[C@H](CC)CC(=O)N(C)[C@@H](CC)C(=O)N[C@@H]([C@@H](C)CC)C(=O)N(C)CC(=O)N(C)[C@H]3C/C=C\CCN(C3=O)[C@@H](Cc3ccc(C(F)(F)F)cc3)C(=O)N(C)CC(=O)N[C@@H](CCc3cc(F)c(C(F)(F)F)c(F)c3)C(=O)N2C1 [PP1626] | A (a compound having 10 or more and less than 20 is denoted as A) | A (a compound having 10 or more and less than 20 is denoted as A) | 108 nM
